Results reported in patent US20120309798A1, “Tumour Treatment Agents and Method” (Vivolux AB, priority 2009, published 2012).
pIC50: −log10 of the molar value. Where two headings read alike, the source gives them in different places.

Key:
Assay type in all cases: cell-based
[1] = test system: Breast cancer patient tumor cells; assay: FMCA, patient tumor samples, breast cancer; conditions: Homo sapiens
Source text: (§1) Cell culture. Patient tumor samples (98) and preparations (4) of normal peripheral blood mononuclear cells (PBMC), detailed in Table 1, were used to determine the activity of VLX50 and, for comparison, six other cytotoxic drugs chosen to represent different mechanistic classes.
(§2) The tumor samples were obtained by bone marrow/peripheral blood sampling, routine surgery or diagnostic biopsy. Leukemic cells and PBMCs were isolated by 1.077 g ml-1 Ficoll-Paque centrifugation (Larsson et al., 1992). Tumor tissue from solid tumor samples was minced into small pieces and tumor cells were isolated by collagenase dispersion followed by Percoll density gradient centrifugation (Csoka et al., 1994). […] Cell viability was determined by trypan blue exclusion test and the proportion of tumor cells in the preparation was judged by inspection of May-Grunvald-Giemsa stained cytospin slides (FIG. 1a). […]
(§3) Fluorometric Microculture Cytotoxicity Assay. The Fluorometric Microculture Cytotoxicity Assay, FMCA, described in detail previously (Lindhagen et al., 2008), is based on measurement of fluorescence generated from hydrolysis of fluorescein diacetate (FDA) to fluorescein by cells with intact plasma membranes. […] Quality criteria for a successful assay included a mean coefficient of variation of less than 30% in the control and a fluorescence signal in control wells of more than 5 times the blank. […]

[2] = test system: CML (Chronic Myelocytic Leukemia) patient tumor cells; assay: FMCA, patient tumor samples, CML; conditions: Homo sapiens
Source text: as §1, §2, §3

[3] = test system: Renal cancer patient tumor cells; assay: FMCA, patient tumor samples, renal cancer; conditions: Homo sapiens
Source text: as §1, §2, §3

MCF-7 tumor cells = assay: Mode of cell death: time lapse phase contrast microscopy and multiparametric HCS (Arrayscan II)
Protocol: Multiparametric high content screening assays. To study the cell death characteristics a multi-parametric high content screening (HCS) assay was used (Cellomics cytotoxicity HitKit™) and an HCS assay for measurement of apoptosis, which has been described in detail previously (Lovborg et al., 2004). The cells (1500 cells/well) were seeded into flat-bottomed 96-well plates (Perkin Elmer Inc., Wellesley, Mass.) and were left to attach before addition of drugs. For the cytotoxicity assay the cytotoxicity HitKit™ reagents (Cellomics Inc., Pittsburgh, Pa., USA) was used according to the manufacturer's instructions. Multi-parameter cytotoxicity HitKit™ contains a nuclear dye, a cell permeability dye, and a lysosomal mass/pH indicator. In the apoptosis assay FAM-DEVD-FMK (part of the CaspaTag Kit, Chemicon, Temecula, Calif.) at a final concentration of 20 μM was added one hour before the end of the drug exposure to stain activated caspase-3 and partly caspase-7. The staining solution was removed and the plates were washed twice with PBS followed by a 30 min fixation in 3.7% formaldehyde and nuclear staining with 10 μM Hoechst 33342 (Sigma). Plates were then washed twice. The plates were centrifuged before each aspiration to avoid loss of cells detached due to toxic stimuli. Processed plates were kept at +4° C. for up to 24 h before analysis. Plates were analyzed using the ArrayScan™ HCS software (Cellomics Inc). The system is a computerized automated fluorescence-imaging microscope that automatically identifies stained cells and reports the intensity and distribution of fluorescence in individual cells. Images were acquired for each fluorescence channel, using suitable filters with 20× objective. In each well at least 800 cells were analyzed. Images and data were stored in a Microsoft SQL database.
Phase contrast microscopy. Time lapse phase contrast microscopy was performed using an automated Incucyte phase contrast microscope. MCF-7 cells (10,000/well) were plated on 24-well ImageLock plates (Essen Instruments, Ann Arbor, Mich.) and cultured in RPMI 1640 media containing 10% fetal bovine serum and antibiotics. The plates were immediately placed into IncuCyte imaging system (Essen Instruments). The chamber is designed to fit into a standard, humidified, CO2 incubator in an atmosphere of 5% CO2, and a moving objective allows the cell culture to be stationary while images are captured at different positions from well to well. Images were collected at hourly intervals starting 30 minutes after addition of the plate to the IncuCyte-FLR chamber. Drug treatment was performed 24 hours after the plates were placed in the Incucyte. Cell density was calculated using the Incucyte software. […]

[4] = n=7, 72 h FMCA, read-out: Median IC50
[5] = range over n=7 samples, read-out: IC50 Range

With `COCCCNC(=S)N/N=C\c1ccccn1` [VLX50, N1-(3-methoxypropyl)-2-(pyridylmethylidene)-hydrazine-1-carbothioamide] the pIC50 [1, 4] was 5.08, the pIC50 [1, 5] was 4.40 to 6.06 and the pIC50 ([2]; n=3, 72 h FMCA, read-out: Median IC50) was 5.29. For the same compound, the pIC50 ([2]; range over n=3 samples, read-out: IC50 Range) was 5.19 to 5.68, the pIC50 [3, 4] was less than 4.40 and the pIC50 [3, 5] was 4.40 to 4.62. For the same compound, the Caspase-3 activity (MCF-7 tumor cells; MCF-7, 48-72 h) was “increase”, the Cell density (MCF-7 tumor cells; MCF-7, 48-72 h) was “gradual decrease” and the DNA fragmentation (MCF-7 tumor cells; MCF-7, 48-72 h) was “increase”. For the same compound, the “Effect on growth and viability” value (MCF-7 tumor cells; MCF-7, 24 h) was “little or no effect”.
